Assay results from the NIST ThermoML archive (doi:10.1021/je800110r).

Conditions: 323.14 K, Liquid, Vibrating tube method

CCCCCCCCCC [decane]
Conditions | mass density [kg/m3]
13785 kPa | 718.8
13804 kPa | 718.9
13828 kPa | 718.9
14191 kPa | 719.3
14209 kPa | 719.3
14225 kPa | 719.4
14243 kPa | 719.2
14258 kPa | 719.3
14293 kPa | 719.3
14335 kPa | 719.3
14443 kPa | 719.4
14465 kPa | 719.4
14487 kPa | 719.5
14504 kPa | 719.5
14521 kPa | 719.5
14541 kPa | 719.5
14562 kPa | 719.5
14576 kPa | 719.5
14589 kPa | 719.5
14598 kPa | 719.5
14609 kPa | 719.6
14666 kPa | 719.6
14766 kPa | 719.7
14778 kPa | 719.6
14789 kPa | 719.6
14800 kPa | 719.6
14810 kPa | 719.7
14824 kPa | 719.7
14837 kPa | 719.7
14850 kPa | 719.7
14864 kPa | 719.8
14876 kPa | 719.8
14889 kPa | 719.7
14900 kPa | 719.7
14913 kPa | 719.8
14923 kPa | 719.9
14931 kPa | 719.9
14941 kPa | 719.8
14955 kPa | 719.8
14964 kPa | 719.8
14976 kPa | 719.9
14990 kPa | 719.9
15000 kPa | 719.8
15350 kPa | 720.2
15364 kPa | 720.1
15378 kPa | 720.2
15435 kPa | 720.1
15447 kPa | 720.2
15460 kPa | 720.2
15476 kPa | 720.3
15490 kPa | 720.3
15507 kPa | 720.3
15517 kPa | 720.2
15527 kPa | 720.3
15542 kPa | 720.4
15556 kPa | 720.2
15567 kPa | 720.3
15581 kPa | 720.4
15594 kPa | 720.3
15610 kPa | 720.3
15624 kPa | 720.4
15639 kPa | 720.3
15655 kPa | 720.4
15673 kPa | 720.4
15738 kPa | 720.4
15754 kPa | 720.6
15765 kPa | 720.5
15776 kPa | 720.5
15787 kPa | 720.5
15805 kPa | 720.5
15818 kPa | 720.6
15829 kPa | 720.6
15844 kPa | 720.6
15853 kPa | 720.6
15866 kPa | 720.5
15877 kPa | 720.5
15890 kPa | 720.5
15904 kPa | 720.6
15915 kPa | 720.5
15926 kPa | 720.6
15940 kPa | 720.6
15955 kPa | 720.6
15970 kPa | 720.6
15982 kPa | 720.7
16000 kPa | 720.7
16012 kPa | 720.6
16029 kPa | 720.7
16041 kPa | 720.8
16056 kPa | 720.6
16067 kPa | 720.7
16079 kPa | 720.8
16091 kPa | 720.8
16100 kPa | 720.9
16110 kPa | 720.7
16124 kPa | 720.7
16136 kPa | 720.8
16148 kPa | 720.7
16160 kPa | 720.7
16175 kPa | 720.8
16192 kPa | 720.9
16206 kPa | 720.8
16223 kPa | 720.9
16235 kPa | 720.9
16249 kPa | 720.9
16265 kPa | 720.8
16281 kPa | 720.9
16305 kPa | 720.9
16323 kPa | 720.9
16485 kPa | 721.1
16497 kPa | 721
16509 kPa | 721.1
16526 kPa | 721
16540 kPa | 721.1
16554 kPa | 721.1
16570 kPa | 721.1
16583 kPa | 721
16614 kPa | 721.1
16658 kPa | 721.2
17010 kPa | 721.4
17025 kPa | 721.5
17272 kPa | 721.7
17288 kPa | 721.6
17305 kPa | 721.6
17323 kPa | 721.8
17337 kPa | 721.8
17350 kPa | 721.7
17369 kPa | 721.7
17387 kPa | 721.7
17405 kPa | 721.7
17419 kPa | 721.7
17442 kPa | 721.7
17455 kPa | 721.9
17473 kPa | 721.8
17491 kPa | 721.9
17510 kPa | 721.8
17532 kPa | 721.9
17546 kPa | 721.9
17561 kPa | 721.9
17579 kPa | 721.9
17593 kPa | 721.9
17612 kPa | 722
17645 kPa | 721.9
17659 kPa | 722
17677 kPa | 722
17694 kPa | 722
17715 kPa | 721.9
17731 kPa | 722
17751 kPa | 722
17772 kPa | 722
17788 kPa | 722.1
17805 kPa | 722.1
17824 kPa | 722.1
17838 kPa | 722.1
17860 kPa | 722.2
17879 kPa | 722.1
17901 kPa | 722.3
17922 kPa | 722.1
17942 kPa | 722.2
17955 kPa | 722.2
17972 kPa | 722.2
17992 kPa | 722.3
18009 kPa | 722.3
18023 kPa | 722.3
18038 kPa | 722.2
18057 kPa | 722.1
18072 kPa | 722.3
18087 kPa | 722.2
18109 kPa | 722.2
18131 kPa | 722.3
18155 kPa | 722.2
18169 kPa | 722.3
18192 kPa | 722.4
18209 kPa | 722.4
18232 kPa | 722.4
18247 kPa | 722.4
18269 kPa | 722.4
18292 kPa | 722.4
18310 kPa | 722.4
18335 kPa | 722.4
18351 kPa | 722.5
18374 kPa | 722.5
18390 kPa | 722.5
18405 kPa | 722.5
18423 kPa | 722.6
18443 kPa | 722.5
18464 kPa | 722.6
18487 kPa | 722.7
18500 kPa | 722.6
18518 kPa | 722.7
18543 kPa | 722.7
18564 kPa | 722.7
18583 kPa | 722.6
18598 kPa | 722.7
18616 kPa | 722.6
18637 kPa | 722.7
18660 kPa | 722.7
18684 kPa | 722.7
18703 kPa | 722.7
18735 kPa | 722.7
18758 kPa | 722.7
18795 kPa | 722.8
18816 kPa | 722.9
18846 kPa | 722.9
18905 kPa | 722.9
18921 kPa | 722.9
18940 kPa | 722.9
18959 kPa | 723
18983 kPa | 722.9
19005 kPa | 723.1
19027 kPa | 723
19043 kPa | 723
19062 kPa | 723.1
19263 kPa | 723.2
19308 kPa | 723.2
19354 kPa | 723.3
19373 kPa | 723.3
19390 kPa | 723.4
19410 kPa | 723.3
19436 kPa | 723.3
19461 kPa | 723.4
19485 kPa | 723.4
19509 kPa | 723.4
19574 kPa | 723.4
19594 kPa | 723.5
19637 kPa | 723.4
19655 kPa | 723.6
19672 kPa | 723.5
19720 kPa | 723.6
19741 kPa | 723.5
19760 kPa | 723.6
19777 kPa | 723.6
19795 kPa | 723.6
19813 kPa | 723.6
19840 kPa | 723.6
19867 kPa | 723.7
19891 kPa | 723.7
19912 kPa | 723.8
19936 kPa | 723.7
19957 kPa | 723.7
20009 kPa | 723.8
20031 kPa | 723.8
20049 kPa | 723.7
20080 kPa | 723.8
20105 kPa | 723.9
20127 kPa | 723.9
20154 kPa | 723.9
20176 kPa | 723.9
20191 kPa | 723.9
20210 kPa | 724
20235 kPa | 723.9
20257 kPa | 724
20286 kPa | 724
20304 kPa | 723.8
20323 kPa | 724
20345 kPa | 724
20363 kPa | 724
20389 kPa | 724.1
20431 kPa | 724.2
20462 kPa | 724
20482 kPa | 724.2
20504 kPa | 724.1
20520 kPa | 724.2
20562 kPa | 724.2
20584 kPa | 724.3
20607 kPa | 724.2
20630 kPa | 724.1
20675 kPa | 724.4
21120 kPa | 724.6
21147 kPa | 724.5
21168 kPa | 724.7
21192 kPa | 724.6
21219 kPa | 724.7
21366 kPa | 724.8
